Measurements as given in patent US7265152B2 (ViroPharma Incorporated, priority 2002, dated 2007).
Where two headings read alike, the source gives them in different places.

What was measured:
[1] = target: T1, HCV NS5B (Hepatitis C virus genotype 1b, UniProt Q9WMX2); test: Inhibition of viral RNA-dependent RNA polymerase (RdRp), in vitro biochemical assay; parameters: species or system HCV genotype 1b virus (BB7); conditions: HCV NS5B RdRp, BB7 genotype 1b; read-out: HCV pol-BB7 IC50
T1 construct: fusion protein, of which the carboxyl terminal 21 amino acids were removed to enhance its solubility; His tag (GSHHHHHH); made in house; host or cells: E. coli
In short: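 Purified recombinant NS5B from a genotype 1b consensus (BB7), His-tagged, E. coli-expressed, with the C-terminal 21 residues deleted. Inhibition of RdRp activity in vitro was measured, and IC50 is the concentration giving 50% inhibition.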

[2] = system: HCV replicon (BB7 sequence) in Huh-7-Clone A cells; test: HCV replicon assay: ELISA of NS5A protein in replicon-containing cells (Inhibition of Viral RNA Replication); format: cell-based
In short: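 Huh-7-Clone A cells carrying subgenomic BB7 HCV replicon (G418-selectable) incubated 72 h with compound. NS5A protein quantified by cell ELISA: glutaraldehyde fixation, anti-NS5A monoclonal plus HRP secondary, TMB read at OD 650 nm. EC50 derived from 8-point serial dilution dose curve.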

[3] = Hepatitis C virus, ranges of EC50 in HCV replicon assay, read-out: Replicon

Which results are given for `CNC(=O)c1c(-c2ccc(F)cc2)oc2cc(NS(=O)(=O)C(C)C)c(OC(C)C)cc12` [Example 145, 2-(4-Fluoro-phenyl)-5-isopropoxy-6-(propane-2-sulfonylamino)-benzofuran-3-carboxylic acid methylamide]?
IC50 [1]: 0.5 to 5 µM; EC50 [2, 3]: < 10 µM

Which IC50 [1] does the source give for `CNC(=O)c1c(-c2ccc(F)cc2)oc2cc(C(N)=O)c(OC(C)C)cc12` [Example 146, 2-(4-Fluoro-phenyl)-5-isopropoxy-benzofuran-3,6-dicarboxylic acid 6-amide 3-methylamide] here?
The IC50 was 0.5 to 5 µM.

And the EC50 ([2]; ranges of EC50 in HCV replicon assay, read-out: Replicon)?
The EC50 was over 30 µM.

`CNC(=O)c1c(-c2ccc(F)cc2)oc2cc(-c3cncnc3)c(OC(C)C)cc12` [Example 147, 2-(4-Fluoro-phenyl)-5-isopropoxy-6-pyrimidin-5-y1-benzofuran-3-carboxylic acid mehtylamide] was tested. Which IC50 [1] did it give?
The IC50 was at most 0.5 µM.

And the EC50 [2, 3]?
Its EC50 is under 10 µM.

What does the source list for `CNC(=O)c1c(-c2ccc(F)cc2)oc2cc(NC(C)(C)C)c(OC(C)C)cc12` [Example 148, 6-tert-Butylamino-2-(4-fluoro-phenyl)-5-isopropoxy-benzofuran-3-carboxylic acid methylamide]?
IC50 [1]: ≤ 0.5 µM; EC50 [2, 3]: < 10 µM

For `CNC(=O)c1c(-c2ccc(F)cc2)oc2cc(S(N)(=O)=O)c(OC(C)C)cc12` [Example 149, 2-(4-Fluoro-phenyl)-5-isopropoxy-6-sulfamoyl-benzofuran-3-carboxylic acid methylamide], which IC50 [1] is on record?
The IC50 was 5 to 30 µM.

What about the EC50 [2, 3] of the same molecule?
Its EC50 is over 30 µM.

`CNC(=O)c1c(-c2ccc(F)cc2)oc2cc(S(=O)(=O)NC3CCC3)c(OC(C)C)cc12` [Example 150, 6-Cyclobutylsulfamoyl-2-(4-fluoro-phenyl)-5-isopropoxy-benzofuran-3-carboxylic acid methylamide] was tested. Which IC50 [1] did it give?
Its IC50 is 0.5 to 5 µM.

And the EC50 [2, 3]?
The EC50 was under 30 µM.

What does the source list for `CNC(=O)c1c(-c2ccc(F)cc2)oc2cc(-c3ccco3)c(OC(C)C)cc12` [Example 151, 2-(4-Fluoro-phenyl)-6-furan-2-yl-5-isopropoxy-benzofuran-3-carboxylic acid methylamide]?
IC50 [1]: ≤ 0.5 µM; EC50 [2, 3]: < 30 µM

Which IC50 [1] does the source give for `CNC(=O)c1c(-c2ccc(F)cc2)oc2cc(-c3ccoc3)c(OC(C)C)cc12` [Example 152, 2-(4-Fluoro-phenyl)-6-furan-3-yl-5-isopropoxy-benzofuran-3-carboxylic acid methylamide] here?
The IC50 was at most 0.5 µM.

What about the EC50 [2, 3] of the same molecule?
The EC50 was under 10 µM.

`CNC(=O)c1c(-c2ccc(F)cc2)oc2cc(-c3cccnc3)c(OC(C)C)cc12` [Example 153, 2-(4-Fluoro-phenyl)-5-isopropoxy-6-pyridin-3-yl-benzofuran-3-carboxylic acid methylamide] was tested. Which IC50 [1] did it give?
The IC50 was at most 0.5 µM.

What about the EC50 [2, 3] of the same molecule?
The EC50 was under 10 µM.

With `CNC(=O)c1c(-c2ccc(F)cc2)oc2cc(S(=O)(=O)N3CCCC3)c(OC(C)C)cc12` [Example 154, 2-(4-Fluoro-phenyl)-5-isopropoxy-6-(pyrrolidine-1-sulfonyl)-benzofuran-3-carboxylic acid methylamide] as the molecule, how does the IC50 [1] read?
The IC50 was at most 0.5 µM.

What about the EC50 [2, 3] of the same molecule?
The EC50 was under 10 µM.

With `CNC(=O)c1c(-c2ccc(F)cc2)oc2cc(S(=O)(=O)NC3CC3)c(OC(C)C)cc12` [Example 155, 6-Cyclopropylsulfamoyl-2-(4-fluoro-phenyl)-5-isopropoxy-benzofuran-3-carboxylic acid methylamide] as the molecule, how does the IC50 [1] read?
Its IC50 is at most 0.5 µM.

What about the EC50 [2, 3] of the same molecule?
Its EC50 is under 10 µM.

How did the IC50 [1] turn out when `CCS(=O)(=O)Nc1cc2oc(-c3ccc(F)cc3)c(C(=O)NC)c2cc1OC(C)C` [Example 156] was run?
The IC50 was at most 0.5 µM.

What about the EC50 ([2]; Hepatitis C virus, read-out: Replicon (μM)) of the same molecule?
Its EC50 is under 10 µM.

`C=Cc1cc2oc(-c3ccc(F)cc3)c(C(=O)NC)c2cc1OC(C)C` [Example 157, 2-(4-Fluoro-phenyl)-5-isopropoxy-6-vinyl-benzofuran-3-carboxylic acid methylamide] was tested. Which IC50 [1] did it give?
The IC50 was at most 0.5 µM.

And the EC50 [2, 3]?
Its EC50 is under 10 µM.

`CNC(=O)c1c(-c2ccc(F)cc2)oc2cc(OC)c(OC(C)C)cc12` [Example 158, 2-(4-Fluoro-phenyl)-5-isopropoxy-6-methoxy-benzofuran-3-carboxylic acid methylamide] was tested. Which IC50 [1] did it give?
Its IC50 is at most 0.5 µM.

What about the EC50 [2, 3] of the same molecule?
The EC50 was under 10 µM.
